Measured values reported in ChEMBL document CHEMBL4007421, “Discovery and Preclinical Characterization of 3-((4-(4-Chlorophenyl)-7-fluoroquinoline-3-yl)sulfonyl)benzonitrile, a Novel Non-acetylenic Metabotropic Glutamate Receptor 5 (mGluR5) Negative Allosteric Modulator for Psychiatric Indications” (J Med Chem, 2017).

tested on: Liver; experiment: Intrinsic clearance in rat liver microsomes at 2.5 uM assessed per gram of liver; assay type: ADME, microsome

Row | CLint | SMILES
1 | 18 mL/min/g | Cc1ccc(S(=O)(=O)c2cnc3ccccc3c2N2CCOCC2)cc1C
2 | 17.5 mL/min/g | Cc1ccc(S(=O)(=O)c2cnc3ccccc3c2-c2ccc(Cl)cc2)cc1

tested on: Liver; experiment: Intrinsic clearance in human liver microsomes at 2.5 uM assessed per gram of liver; assay type: ADME, microsome

Row | SMILES | CLint
3 | Cc1ccc(S(=O)(=O)c2cnc3ccccc3c2N2CCOCC2)cc1C | 3.37 mL/min/g
4 | COc1ccc(S(=O)(=O)c2cnc3cc(F)ccc3c2-c2ccc(F)cc2)cc1 | 1.71 mL/min/g
5 | COc1cccc(-c2c(S(=O)(=O)c3ccc(OC)c(Cl)c3)cnc3cc(F)ccc23)c1 | 1.71 mL/min/g
6 | Cc1ccc(S(=O)(=O)c2cnc3cc(F)ccc3c2-c2ccc(F)cc2)cc1C | 9.25 mL/min/g
7 | COc1cccc(-c2c(S(=O)(=O)c3cccc(C#N)c3)cnc3cc(F)ccc23)c1 | 1.83 mL/min/g
8 | COc1cccc(S(=O)(=O)c2cnc3cc(F)ccc3c2-c2cccc(Cl)c2)c1 | 2.97 mL/min/g
9 | N#Cc1cccc(S(=O)(=O)c2cnc3cc(F)ccc3c2-c2cccc(Cl)c2)c1 | 0.99 mL/min/g
10 | COc1cccc(-c2c(S(=O)(=O)c3ccc(C)c(C)c3)cnc3cc(F)ccc23)c1 | 8.78 mL/min/g
11 | COc1ccc(-c2c(S(=O)(=O)c3ccc(F)c(F)c3)cnc3cc(F)ccc23)cc1 | 1.1 mL/min/g
12 | N#Cc1cccc(S(=O)(=O)c2cnc3c(F)cccc3c2-c2ccc(Cl)cc2)c1 | 0.08 mL/min/g
13 | COc1ccc(S(=O)(=O)c2cnc3cc(F)ccc3c2-c2cccc(F)c2)cc1Cl | 2.08 mL/min/g
14 | COc1cccc(-c2c(S(=O)(=O)c3cc(Cl)cc(Cl)c3)cnc3cc(F)ccc23)c1 | 1.51 mL/min/g
15 | O=S(=O)(c1cc(Cl)cc(Cl)c1)c1cnc2c(F)cccc2c1-c1cccc(Cl)c1 | 1.2 mL/min/g
16 | COc1ccc(-c2c(S(=O)(=O)c3ccc(F)cc3)cnc3cc(F)ccc23)cc1 | 1.77 mL/min/g
17 | COc1ccc(-c2c(S(=O)(=O)c3ccc(OC)cc3)cnc3c(F)cccc23)cc1 | 2.12 mL/min/g
18 | COc1ccc(-c2c(S(=O)(=O)c3ccc(F)c(Cl)c3)cnc3cc(F)ccc23)cc1 | 1.08 mL/min/g
19 | N#Cc1cccc(S(=O)(=O)c2cnc3cc(F)ccc3c2-c2ccccc2F)c1 | 1.39 mL/min/g
20 | O=S(=O)(c1cc(Cl)cc(Cl)c1)c1cnc2c(F)cccc2c1-c1ccc(Cl)cc1 | 0.78 mL/min/g
21 | O=S(=O)(c1cc(F)cc(F)c1)c1cnc2cc(F)ccc2c1-c1cccc(Cl)c1 | 0.22 mL/min/g
22 | Cc1ccc(S(=O)(=O)c2cnc3cc(F)ccc3c2-c2ccc(Cl)cc2)cc1C | 7.88 mL/min/g
23 | COc1ccc(S(=O)(=O)c2cnc3cc(F)ccc3c2-c2ccc(F)cc2)cc1Cl | 1.29 mL/min/g
24 | COc1ccc(-c2c(S(=O)(=O)c3cc(Cl)cc(Cl)c3)cnc3c(F)cccc23)cc1 | 2.11 mL/min/g
25 | COc1cccc(-c2c(S(=O)(=O)c3cc(Cl)cc(Cl)c3)cnc3c(F)cccc23)c1 | 2.31 mL/min/g
26 | COc1ccc(-c2c(S(=O)(=O)c3ccc(C)c(C)c3)cnc3cc(F)ccc23)cc1 | 4.13 mL/min/g

Row | SMILES | CLint
27 | COc1ccc(-c2c(S(=O)(=O)c3cccc(C#N)c3)cnc3cc(F)ccc23)cc1 | 0.92 mL/min/g
28 | N#Cc1cccc(S(=O)(=O)c2cnc3c(F)cccc3c2-c2ccccc2F)c1 | 0.66 mL/min/g
29 | COc1ccc(-c2c(S(=O)(=O)c3cc(Cl)cc(Cl)c3)cnc3cc(F)ccc23)cc1 | 1 mL/min/g
30 | COc1cccc(-c2c(S(=O)(=O)c3cc(F)cc(F)c3)cnc3cc(F)ccc23)c1 | 1.81 mL/min/g
31 | COc1ccc(-c2c(S(=O)(=O)c3cc(F)cc(F)c3)cnc3cc(F)ccc23)cc1 | 1.51 mL/min/g
32 | COc1ccc(S(=O)(=O)c2cnc3cc(F)ccc3c2-c2cccc(Cl)c2)cc1Cl | 1.19 mL/min/g
33 | COc1ccc(S(=O)(=O)c2cnc3cc(F)ccc3c2-c2ccc(Cl)cc2)cc1 | 1.28 mL/min/g
34 | O=S(=O)(c1ccc(F)c(Cl)c1)c1cnc2cc(F)ccc2c1-c1ccccc1F | 1.07 mL/min/g
35 | O=S(=O)(c1cc(F)cc(F)c1)c1cnc2cc(F)ccc2c1-c1ccc(Cl)cc1 | 0.03 mL/min/g
36 | O=S(=O)(c1ccc(F)c(Cl)c1)c1cnc2cc(F)ccc2c1-c1cccc(Cl)c1 | 0.66 mL/min/g
37 | COc1ccc(-c2c(S(=O)(=O)c3ccc(OC)cc3)cnc3cc(F)ccc23)cc1 | 1.18 mL/min/g
38 | COc1ccc(-c2c(S(=O)(=O)c3cccc(F)c3)cnc3cc(F)ccc23)cc1 | 1.89 mL/min/g
39 | COc1ccc(S(=O)(=O)c2cnc3cc(F)ccc3c2-c2cccc(F)c2)cc1 | 2.94 mL/min/g
40 | N#Cc1cccc(S(=O)(=O)c2cnc3cc(F)ccc3c2-c2cccc(F)c2)c1 | 0.78 mL/min/g
41 | COc1ccc(-c2c(S(=O)(=O)c3ccc(F)cc3)cnc3c(F)cccc23)cc1 | 2.41 mL/min/g
42 | Cc1ccc(S(=O)(=O)c2cnc3ccccc3c2-c2ccc(Cl)cc2)cc1 | 2.12 mL/min/g
43 | O=S(=O)(c1cccc(F)c1)c1cnc2cc(F)ccc2c1-c1ccc(Cl)cc1 | 0.98 mL/min/g
44 | O=S(=O)(c1cc(Cl)cc(Cl)c1)c1cnc2c(F)cccc2c1-c1ccccc1F | 0.44 mL/min/g
45 | COc1ccc(S(=O)(=O)c2cnc3c(F)cccc3c2-c2ccc(Cl)cc2)cc1 | 1.05 mL/min/g
46 | O=S(=O)(c1ccc(F)cc1)c1cnc2cc(F)ccc2c1-c1ccc(F)cc1 | 1.34 mL/min/g
47 | O=S(=O)(c1cc(Cl)cc(Cl)c1)c1cnc2cc(F)ccc2c1-c1ccccc1F | 0.93 mL/min/g
48 | O=S(=O)(c1cc(Cl)cc(Cl)c1)c1cnc2cc(F)ccc2c1-c1cccc(Cl)c1 | 0.93 mL/min/g
49 | O=S(=O)(c1cccc(F)c1)c1cnc2cc(F)ccc2c1-c1ccc(F)cc1 | 0.11 mL/min/g

Continued, values first:

Row | CLint | SMILES
50 | 3.71 mL/min/g | Cc1ccc(S(=O)(=O)c2cnc3cc(F)ccc3c2-c2cccc(F)c2)cc1C
51 | 3.27 mL/min/g | COc1ccc(-c2c(S(=O)(=O)c3ccc(C)c(F)c3)cnc3c(F)cccc23)cc1
52 | 2.75 mL/min/g | Cc1ccc(S(=O)(=O)c2cnc3c(F)cccc3c2-c2ccc(F)cc2)cc1F
53 | 0.01 mL/min/g | O=S(=O)(c1ccc(F)c(Cl)c1)c1cnc2c(F)cccc2c1-c1ccc(Cl)cc1
54 | 1.39 mL/min/g | O=S(=O)(c1ccc(F)c(F)c1)c1cnc2c(F)cccc2c1-c1ccccc1F
55 | 2.75 mL/min/g | COc1ccc(S(=O)(=O)c2cnc3c(F)cccc3c2-c2cccc(Cl)c2)cc1
56 | 1.39 mL/min/g | O=S(=O)(c1ccc(F)c(Cl)c1)c1cnc2c(F)cccc2c1-c1ccccc1F
57 | 1.08 mL/min/g | O=S(=O)(c1cc(Cl)cc(Cl)c1)c1cnc2c(F)cccc2c1-c1cccc(F)c1
58 | 3.92 mL/min/g | Cc1ccc(S(=O)(=O)c2cnc3c(F)cccc3c2-c2cccc(F)c2)cc1F
59 | 0.38 mL/min/g | O=S(=O)(c1ccc(F)c(F)c1)c1cnc2cc(F)ccc2c1-c1cccc(Cl)c1
60 | 4.02 mL/min/g | COc1cccc(-c2c(S(=O)(=O)c3ccc(C)c(F)c3)cnc3c(F)cccc23)c1
61 | 2.23 mL/min/g | COc1cccc(-c2c(S(=O)(=O)c3ccc(F)cc3)cnc3c(F)cccc23)c1
62 | 0.18 mL/min/g | O=S(=O)(c1ccc(F)c(Cl)c1)c1cnc2c(F)cccc2c1-c1cccc(Cl)c1
63 | 1.77 mL/min/g | COc1cccc(-c2c(S(=O)(=O)c3ccc(F)c(F)c3)cnc3cc(F)ccc23)c1
64 | 3.18 mL/min/g | Cc1ccc(S(=O)(=O)c2cnc3c(F)cccc3c2-c2cccc(Cl)c2)cc1F
65 | 2.76 mL/min/g | COc1cccc(-c2c(S(=O)(=O)c3cc(F)cc(F)c3)cnc3c(F)cccc23)c1
66 | 1.13 mL/min/g | O=S(=O)(c1ccc(F)c(F)c1)c1cnc2c(F)cccc2c1-c1cccc(Cl)c1
67 | 0.73 mL/min/g | O=S(=O)(c1cc(F)cc(F)c1)c1cnc2c(F)cccc2c1-c1ccc(Cl)cc1
68 | 2.6 mL/min/g | COc1cccc(-c2c(S(=O)(=O)c3cccc(F)c3)cnc3c(F)cccc23)c1
69 | 2.48 mL/min/g | COc1ccc(-c2c(S(=O)(=O)c3cccc(F)c3)cnc3c(F)cccc23)cc1
70 | 1.21 mL/min/g | O=S(=O)(c1ccc(F)cc1)c1cnc2c(F)cccc2c1-c1cccc(Cl)c1
71 | 0.21 mL/min/g | O=S(=O)(c1cccc(F)c1)c1cnc2c(F)cccc2c1-c1ccccc1F
72 | 0.09 mL/min/g | O=S(=O)(c1cc(F)cc(F)c1)c1cnc2c(F)cccc2c1-c1ccccc1F
73 | 0.56 mL/min/g | O=S(=O)(c1cccc(F)c1)c1cnc2c(F)cccc2c1-c1cccc(Cl)c1
74 | 2.33 mL/min/g | Cc1ccc(S(=O)(=O)c2cnc3cc(F)ccc3c2-c2ccc(F)cc2)cc1F
75 | 1.14 mL/min/g | O=S(=O)(c1cccc(F)c1)c1cnc2c(F)cccc2c1-c1cccc(F)c1

Row | CLint | SMILES
76 | 1.11 mL/min/g | N#Cc1cccc(S(=O)(=O)c2cnc3c(F)cccc3c2-c2cccc(Cl)c2)c1
77 | 0.62 mL/min/g | O=S(=O)(c1cccc(F)c1)c1cnc2c(F)cccc2c1-c1ccc(Cl)cc1
78 | 1.23 mL/min/g | O=S(=O)(c1ccc(F)c(Cl)c1)c1cnc2c(F)cccc2c1-c1cccc(F)c1
79 | 1.56 mL/min/g | O=S(=O)(c1ccc(F)cc1)c1cnc2c(F)cccc2c1-c1cccc(F)c1
80 | 0.95 mL/min/g | O=S(=O)(c1ccc(F)cc1)c1cnc2cc(F)ccc2c1-c1cccc(F)c1
81 | 0.24 mL/min/g | O=S(=O)(c1cccc(F)c1)c1cnc2cc(F)ccc2c1-c1cccc(F)c1
82 | 0.6 mL/min/g | O=S(=O)(c1ccc(F)c(F)c1)c1cnc2cc(F)ccc2c1-c1cccc(F)c1
83 | 0.25 mL/min/g | O=S(=O)(c1ccc(F)c(Cl)c1)c1cnc2cc(F)ccc2c1-c1cccc(F)c1
84 | 2.12 mL/min/g | COc1ccc(-c2c(S(=O)(=O)c3ccc(F)c(F)c3)cnc3c(F)cccc23)cc1
85 | 0.64 mL/min/g | O=S(=O)(c1cc(F)cc(F)c1)c1cnc2c(F)cccc2c1-c1cccc(Cl)c1
86 | 1.28 mL/min/g | O=S(=O)(c1ccc(F)c(F)c1)c1cnc2c(F)cccc2c1-c1cccc(F)c1
87 | 0.41 mL/min/g | Cc1ccc(S(=O)(=O)c2cnc3cc(F)ccc3c2-c2cccc(F)c2)cc1F
88 | 4.01 mL/min/g | Cc1ccc(S(=O)(=O)c2cnc3cc(F)ccc3c2-c2cccc(Cl)c2)cc1C
89 | 0.34 mL/min/g | N#Cc1cccc(S(=O)(=O)c2cnc3c(F)cccc3c2-c2cccc(F)c2)c1
90 | 0.79 mL/min/g | O=S(=O)(c1ccc(F)c(F)c1)c1cnc2cc(F)ccc2c1-c1ccccc1F
91 | 3.03 mL/min/g | COc1ccc(S(=O)(=O)c2cnc3c(F)cccc3c2-c2cccc(F)c2)cc1
92 | 2.2 mL/min/g | Cc1ccc(S(=O)(=O)c2cnc3c(F)cccc3c2-c2ccc(Cl)cc2)cc1F
93 | 0.78 mL/min/g | O=S(=O)(c1ccc(F)c(F)c1)c1cnc2c(F)cccc2c1-c1ccc(F)cc1
94 | 2.87 mL/min/g | COc1ccc(S(=O)(=O)c2cnc3c(F)cccc3c2-c2cccc(OC)c2)cc1
95 | 0.19 mL/min/g | O=S(=O)(c1ccc(F)c(Cl)c1)c1cnc2c(F)cccc2c1-c1ccc(F)cc1
96 | 2.59 mL/min/g | COc1ccc(-c2c(S(=O)(=O)c3cc(F)cc(F)c3)cnc3c(F)cccc23)cc1
97 | 2.13 mL/min/g | Cc1ccc(S(=O)(=O)c2cnc3cc(F)ccc3c2-c2cccc(Cl)c2)cc1F
98 | 3.36 mL/min/g | COc1cccc(S(=O)(=O)c2cnc3cc(F)ccc3c2-c2cccc(F)c2)c1
99 | 0.19 mL/min/g | N#Cc1cccc(S(=O)(=O)c2cnc3c(F)cccc3c2-c2ccc(F)cc2)c1
100 | 1.18 mL/min/g | O=S(=O)(c1cc(F)cc(F)c1)c1cnc2c(F)cccc2c1-c1cccc(F)c1
